Entries after “also recorded” stand apart in the source; their conditions may differ. Read-outs that look alike come from different tables or passages of the source.

This note sets out measurements from patent publication US8216783B2, “Over-expression and mutation of a tyrosine kinase receptor FGFR4 in tumors” (The United States of America, as represented by the …, priority 2008, dated 2012).

For one assay, the system named is RH30 TRB H11.5 cells. Nature of the assay: In vitro growth of RH30 TRB H11.5 cells with or without dox. In kind it is cell-based, human. The conditions noted are these: RH30 TRB H11.5, 25 nM dox, 13 days, P=0.0021. As to the method: FIG. 13B is a plot of RH30 TRB H11.5 cell growth with or without 25 nM dox for 120 hours.
FIG. 13C is a plot of RH30TRB H11.5 cell number 13 days after treatment with or without 25 nM dox.
Human rhabdomyosarcoma cell line RH30 was retrovirally transduced with vectors containing tetracycline repressor protein and ecotropic receptor. A tetracycline inducible shRNA construct targeting FGFR4 ([…], SEQ ID NO: 44) was used to transduce these RH30 cells as described previously (Ngo et al. Nature 441:106-110, 2006). Transduced RH30 cells were then subcloned. The subclone with the highest FGFR4 knockdown in the presence of doxycycline (dox) was used for in vitro and in vivo studies. The subclone chosen was designated as RH30 TRB H11.5 and was further transduced with a retroviral vector encoding luciferase. RH30 TRB H11.5 cells treated with or without 25 ng/ml doxycycline for 48 hours were harvested for Western blot for FGFR4 expression.

For assay [1], the system named is RMS772 cells expressing FGFR4 N535K or V550E. In words: Relative cell number of RMS772 transductants treated with imatinib. In kind it is cell-based, mouse. The conditions noted are these: 10 μM, 24 hours. The procedure: To determine the sensitivity of FGFR4 mutants (N535K and V550E) to imatinib, RMS772 transductants were treated with imatinib (ranging from 0 μM to 40 μM). After 24 hours, relative cell number (normalized with control) was plotted against imatinib dose.

The next assay relates to RD. In words: IC50 of PD173074 for killing human RMS cell lines (RT-CES cell growth monitoring). In kind it is cell-based. The settings on record: RD cell line. The procedure:
(§1) Briefly human RMS cell lines were seeded in the 96 well plate device at 5000-20,000 cells per well. […] Cell growth was monitored and IC50 values were calculated by Cell Office® (ACEA Biosciences, San Diego, Calif.).
(§2) Expression level of FGFR4 mRNA for each cell line was determined by real-time PCR (FIG. 10).

For another assay, the system named is RH28. Described as above. In kind it is cell-based. The conditions noted are these: RH28 cell line. The procedure:
as §1, §2

In another assay the test system is RH30. The assay is described as above. The settings on record: RH30 cell line. In kind it is cell-based. As to the method: as §1, §2
Another assay concerns RH36. Described as above. The format is cell-based. The settings on record: RH36 cell line. As to the method:
as §1, §2

In the next assay the test system is RH41. Described as above. In kind it is cell-based. The settings on record: RH41 cell line. The procedure: as §1, §2
The test system of assay [2] is RMS772 cells expressing vector only. Nature of the assay: Percent cell survival of transduced RMS772 cell lines with PD173074. The format is cell-based. The settings on record: Mus musculus; RMS772 vector control, 48 hours of treatment.
In assay [3] the test system is RMS772 cells expressing wild type FGFR4. Described as above. The format is cell-based. The conditions noted are these: Mus musculus; RMS772 wild type FGFR4, 48 hours of treatment.
For assay [4], the system named is RMS772 cells expressing FGFR4 N535K (K535). The description is as above. In kind it is cell-based. The settings on record: Mus musculus; RMS772 K535, 48 hours of treatment.
The test system of assay [5] is RMS772 cells expressing FGFR4 V550E (E550). The assay is described as above. The format is cell-based. The conditions noted are these: Mus musculus; RMS772 E550, 48 hours of treatment.
Assay [6] concerns RMS119 cells expressing FGFR4 N535K or V550E. In words: Cell cycle assay (BrdU/7-AAD flow cytometry), apoptosis as subG1 fraction. The format is cell-based, mouse. The conditions noted are these: 5 uM for 24 hours. As to the method:
(§3) The effect of […] in RMS119 and RMS772 transfectants was determined using cell cycle assays. […] Cells were then pulsed with BrdU for 40 minutes, and then fixed, permeabilized, and treated with DNase, and followed by staining with mAb (BD Biosciences, Franklin Lakes, N.J.) against BrdU and with 7-AAD (BD Biosciences, Franklin Lakes, N.J.) respectively. Flow cytometry was used to analyze the cell cycle parameters.
(§4) Apoptosis was assessed by determining the fraction of cells in the subG1 stage of the cell cycle. There were no differences in cell cycle parameters of RMS772 cells expressing TK domain mutants cultured in medium containing 10% FBS compared to vector or wild type FGFR4 (FIG. 9A).

The subject of assay [7] is RMS772 cells expressing FGFR4 TK domain mutations N535K or V550E. Described as above. The conditions noted are these: 5 uM for 24 hours. The format is cell-based, mouse. The procedure: as §3, §4
The subject of assay [8] is RMS772 cells expressing FGFR4 N535K (K535) or V550E (E550). Nature of the assay: Activated caspase 3 positive cells in RMS772 transductants. The settings on record: both mutant RMS772 cell lines, 20 μM, 24 hour treatment. In kind it is cell-based, mouse.
[9] abbreviates: 24 hours, read-out: IC50 for killing, 24 hours.
Where [10] appears, read: 48 hours, read-out: IC50 for killing, 48 hours.
Where [11] appears, read: 72 hours, read-out: IC50 for killing, 72 hours.

For `C[C@H]1c2cccc(O)c2C(=O)C2=C(O)[C@]3(O)C(=O)C(C(N)=O)=C(O)[C@@H](N(C)C)[C@@H]3[C@@H](O)[C@@H]21` [dox, doxycycline], the “reduction in growth after prolonged culture” value in the assay with RH30 TRB H11.5 cells was 41%.

As for `Cc1ccc(NC(=O)c2ccc(CN3CCN(C)CC3)cc2)cc1Nc1nccc(-c2cccnc2)n1` [imatinib, 4-[(4-methylpiperazin-1-yl)methyl]-N-[4-methyl-3-[(4-pyridin-3-ylpyrimidin-2-yl)amino]-phenyl]-benzamide], the “sensitivity (relative cell number) of FGFR4 mutants versus wild type FGFR4 or control cells” value in assay [1] is listed as “more sensitive”.

One may read the IC50 as the concentration needed to halve the response being measured. Take `CCN(CC)CCCCNc1ncc2cc(-c3cc(OC)cc(OC)c3)c(NC(=O)NC(C)(C)C)nc2n1` [PD173074]: the IC50 turned out to be 57.1 µM with RD (setting [9]); 29.7 µM in the assay on RD (setting [10]); 20.2 µM in the assay on RD (setting [11]); 2.22 µM in the assay with RH28 (setting [9]); 0.66 µM with RH28 (setting [10]); 0.5 µM in the assay with RH28 (setting [11]). Moreover, the IC50 is 10 µM in the assay with RH30 (setting [9]); 8.32 µM in the assay on RH30 (setting [10]); 8.11 µM in the assay on RH30 (setting [11]); 25.9 µM in the assay with RH36 (setting [9]); 17.6 µM with RH36 (setting [10]); 20.2 µM with RH36 (setting [11]). In addition, the half-inhibitory concentration (IC50) in the assay on RH41 (setting [9]) stood at 2.55 µM; with RH41 (setting [10]), 0.96 µM; in the assay on RH41 (setting [11]), 0.76 µM; in [2], 12.7 µM; in [3], 11.8 µM; in [4], 8.2 µM. In assay [5], this compound came in with an IC50 of 5.9 µM. The “apoptosis / cell cycle effect of treatment” value in assay [6] is “not affected”. Also, in [7], the “apoptosis (SubG1 fraction) compared with cells transfected with vector or wild type FGFR4” value was “increase in apoptosis; also recorded: increased SubG1 fraction”. In addition, in [8], the “activated caspase 3 (cells positive, normalized to vector only)” value is listed as “increased activated caspase 3”.
